Data taken from publication PMC6478789, “A chemical toolbox for the study of bromodomains and epigenetic signaling” (Nature Communications, 2019).

Assays:
BRPF1 = target: T1, BRPF1 (Homo sapiens, UniProt P55201); assay: BROMOscan ligand-binding assay; details: KD, BROMOscan Gene Symbol BRPF1
T1 sequence (P55201 628-732 limits assumed): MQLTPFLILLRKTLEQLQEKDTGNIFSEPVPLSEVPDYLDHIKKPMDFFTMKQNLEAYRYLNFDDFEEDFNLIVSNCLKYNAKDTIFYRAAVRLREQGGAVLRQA
Description: (§2) BROMOscan is a binding assay based on the well-known KINOMEscan technology. This assay measures the binding of a DNA-tagged bromodomain to an immobilized BRD ligand. If an inhibitor is present, it will compete with the bromodomain binding to the immobilized ligand, resulting in reduction of a quantitative PCR (qPCR) signal in a dose-dependent manner.

BAZ1B = target: T2, BAZ1B (Homo sapiens, UniProt Q9UIG0); assay: BROMOscan ligand-binding assay; details: KD, BROMOscan Gene Symbol BAZ1B
T2 sequence (Q9UIG0 1339-1443 limits assumed): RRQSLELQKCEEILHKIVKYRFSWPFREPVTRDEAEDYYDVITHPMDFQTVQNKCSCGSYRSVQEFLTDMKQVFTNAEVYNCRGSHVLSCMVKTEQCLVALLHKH
Description: as §2

BRD8(2) = BRD8(2) (Homo sapiens, UniProt Q9H0E9); assay: BROMOscan ligand-binding assay; details: KD, BROMOscan Gene Symbol BRD8(2)
Sequence of BRD8(2) (Q9H0E9 1099-1207 limits assumed): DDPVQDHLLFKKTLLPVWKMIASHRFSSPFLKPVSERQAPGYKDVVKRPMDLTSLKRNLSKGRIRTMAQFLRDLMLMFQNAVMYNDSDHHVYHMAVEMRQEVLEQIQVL
Description: as §2

TRIM33(PHD,BRD) = target: T3, TRIM33(PHD,BRD) (Homo sapiens, UniProt Q9UPN9); assay: BROMOscan ligand-binding assay
T3 sequence (Q9UPN9 882-1087 limits assumed): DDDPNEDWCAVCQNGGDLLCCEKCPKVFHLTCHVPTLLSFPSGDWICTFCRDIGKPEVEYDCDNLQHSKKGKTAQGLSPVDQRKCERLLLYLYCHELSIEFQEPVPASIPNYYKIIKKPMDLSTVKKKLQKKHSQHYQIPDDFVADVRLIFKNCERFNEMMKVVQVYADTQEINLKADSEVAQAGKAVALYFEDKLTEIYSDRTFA
Description: as §2

BRD9 = target: T4, BRD9 (Homo sapiens, UniProt Q9H8M2); assay: Temperature shift assay (bromodomains); assay type: binding; details: compared to ITC KD
T4 construct: purchased DiscoverX BROMOscan (bromodomains); SGC in-house methyltransferase panel
T4 sequence (Q9H8M2 134-239): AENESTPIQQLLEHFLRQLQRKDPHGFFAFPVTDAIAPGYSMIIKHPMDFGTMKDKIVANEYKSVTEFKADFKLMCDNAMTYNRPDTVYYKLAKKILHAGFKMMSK
Description: (§1) Temperature shift assays have been described by Fedorov et al.[46]. Recombinant protein domains (bromodomain or kinases) at a concentration of 2 μM in 10 mM HEPES, pH 7.5, and 500 mM NaCl were mixed with 10 μM of chemical probes. Temperature-dependent protein unfolding profiles were measured using a Real-Time PCR Mx3005p machine (Stratagene).

CBP = target: T5, CBP (Homo sapiens, UniProt Q92793); assay: Temperature shift assay (bromodomains); assay type: binding; details: compared to ITC KD
T5 construct: Recombinant protein domains (bromodomain or kinases) at a concentration of 2 μM
T5 sequence (Q92793 1085-1192 limits assumed): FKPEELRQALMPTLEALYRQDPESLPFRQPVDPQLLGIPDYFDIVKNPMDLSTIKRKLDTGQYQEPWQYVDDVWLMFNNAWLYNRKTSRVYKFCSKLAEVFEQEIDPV
Description: as §1

TAF1L(2) = target: T6, TAF1L(2) (Homo sapiens, UniProt Q8IZX4); assay: Temperature shift assay (bromodomains); assay type: binding; details: compared to ITC KD
T6 construct: purchased DiscoverX BROMOscan (bromodomains); SGC in-house methyltransferase panel
T6 sequence (Q8IZX4 1523-1654 limits assumed): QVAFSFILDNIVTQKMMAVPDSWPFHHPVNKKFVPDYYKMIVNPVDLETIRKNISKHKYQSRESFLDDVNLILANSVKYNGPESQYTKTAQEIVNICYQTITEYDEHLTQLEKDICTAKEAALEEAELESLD
Description: as §1

BRD8(1) = BRD8(1) (Homo sapiens, UniProt Q9H0E9); assay: BROMOscan ligand-binding assay; details: KD, BROMOscan Gene Symbol BRD8(1)
Sequence of BRD8(1) (Q9H0E9 706-811 limits assumed): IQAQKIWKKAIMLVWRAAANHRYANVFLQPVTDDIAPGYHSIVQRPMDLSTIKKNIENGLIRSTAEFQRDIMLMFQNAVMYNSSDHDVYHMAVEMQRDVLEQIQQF
Description: as §2

EP300 = target: T7, EP300 (Homo sapiens, UniProt Q09472); assay: BROMOscan ligand-binding assay; details: KD, BROMOscan Gene Symbol EP300
T7 sequence (Q09472 1049-1156 limits assumed): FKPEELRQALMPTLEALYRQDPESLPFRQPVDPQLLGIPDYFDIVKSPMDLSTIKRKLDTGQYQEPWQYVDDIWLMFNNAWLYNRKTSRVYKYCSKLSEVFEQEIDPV
Description: as §2

ATAD2A = target: T8, ATAD2A (Homo sapiens, UniProt Q6PL18); assay: BROMOscan ligand-binding assay; details: KD, BROMOscan Gene Symbol ATAD2A
T8 sequence (Q6PL18 980-1092 limits assumed): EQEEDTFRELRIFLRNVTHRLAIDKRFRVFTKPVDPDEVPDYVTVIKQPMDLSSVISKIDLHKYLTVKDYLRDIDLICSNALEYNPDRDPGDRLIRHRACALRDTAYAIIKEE
Description: as §2

SMARCA2(iso.A) = SMARCA2(iso.A) (Homo sapiens, UniProt P51531); assay: BROMOscan ligand-binding assay; details: KD, BROMOscan Gene Symbol SMARCA2(iso.A)
Sequence of SMARCA2(iso.A) (P51531 1378-1506 limits assumed): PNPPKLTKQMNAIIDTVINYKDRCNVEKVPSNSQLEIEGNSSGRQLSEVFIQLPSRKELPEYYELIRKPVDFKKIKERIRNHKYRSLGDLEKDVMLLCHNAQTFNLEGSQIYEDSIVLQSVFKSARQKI
Description: as §2

C2C12 myoblast cells = assay: Gene-expression analysis (microarray); assay type: cell-based, mouse; details: 12 h; 500 nM (JQ1, LP-99), 2 μM (GSK2801, BAZ2-ICR, BSP)
Description: Total RNA was extracted using the PureLink^TM RNA mini kit (Thermo Fisher Scientific, 12183018A) as per the manufacturer’s protocol.
RNA samples were processed for oligonucleotide microarray profiling utilizing the Affymetrix Clariom^TM S Assay HT mouse. Quality controls were carried out in R (v.3.5.1) and Bioconductor[71] (v.3.7) using the arrayQualityMetrics package (v.3.36.0) taking into account array intensity distributions, distance between arrays, and variance mean dependence. Principal component analysis was used to decide which arrays to process together. After quality control, arrays were corrected for background, normalized, and log2-transformed together using the rma function of the oligo package (v.1.44)[73] in R/Bioconductor. Probes with small variance across samples were filtered out using the genefilter (v.1.62) package, employing the nsFilter function and an interquartile range cut-off of 0.28 (or >log(1.2), determined by the midpoint of the shortest interval containing half of the data). This reduced the number of probes of the Clariom^TM S array from 29,129 to 14,538.
Differential expression analysis was conducted using the limma package (v.3.36.2)[74], employing a linear model followed by empirical Bayesian analysis to determine differential expression between not-treated and treated samples.

SMARCA2 = SMARCA2 (Homo sapiens, UniProt P51531); assay: BROMOscan ligand-binding assay; details: KD, BROMOscan Gene Symbol SMARCA2
Sequence of SMARCA2 (P51531 1-1572 isoform P51531-2): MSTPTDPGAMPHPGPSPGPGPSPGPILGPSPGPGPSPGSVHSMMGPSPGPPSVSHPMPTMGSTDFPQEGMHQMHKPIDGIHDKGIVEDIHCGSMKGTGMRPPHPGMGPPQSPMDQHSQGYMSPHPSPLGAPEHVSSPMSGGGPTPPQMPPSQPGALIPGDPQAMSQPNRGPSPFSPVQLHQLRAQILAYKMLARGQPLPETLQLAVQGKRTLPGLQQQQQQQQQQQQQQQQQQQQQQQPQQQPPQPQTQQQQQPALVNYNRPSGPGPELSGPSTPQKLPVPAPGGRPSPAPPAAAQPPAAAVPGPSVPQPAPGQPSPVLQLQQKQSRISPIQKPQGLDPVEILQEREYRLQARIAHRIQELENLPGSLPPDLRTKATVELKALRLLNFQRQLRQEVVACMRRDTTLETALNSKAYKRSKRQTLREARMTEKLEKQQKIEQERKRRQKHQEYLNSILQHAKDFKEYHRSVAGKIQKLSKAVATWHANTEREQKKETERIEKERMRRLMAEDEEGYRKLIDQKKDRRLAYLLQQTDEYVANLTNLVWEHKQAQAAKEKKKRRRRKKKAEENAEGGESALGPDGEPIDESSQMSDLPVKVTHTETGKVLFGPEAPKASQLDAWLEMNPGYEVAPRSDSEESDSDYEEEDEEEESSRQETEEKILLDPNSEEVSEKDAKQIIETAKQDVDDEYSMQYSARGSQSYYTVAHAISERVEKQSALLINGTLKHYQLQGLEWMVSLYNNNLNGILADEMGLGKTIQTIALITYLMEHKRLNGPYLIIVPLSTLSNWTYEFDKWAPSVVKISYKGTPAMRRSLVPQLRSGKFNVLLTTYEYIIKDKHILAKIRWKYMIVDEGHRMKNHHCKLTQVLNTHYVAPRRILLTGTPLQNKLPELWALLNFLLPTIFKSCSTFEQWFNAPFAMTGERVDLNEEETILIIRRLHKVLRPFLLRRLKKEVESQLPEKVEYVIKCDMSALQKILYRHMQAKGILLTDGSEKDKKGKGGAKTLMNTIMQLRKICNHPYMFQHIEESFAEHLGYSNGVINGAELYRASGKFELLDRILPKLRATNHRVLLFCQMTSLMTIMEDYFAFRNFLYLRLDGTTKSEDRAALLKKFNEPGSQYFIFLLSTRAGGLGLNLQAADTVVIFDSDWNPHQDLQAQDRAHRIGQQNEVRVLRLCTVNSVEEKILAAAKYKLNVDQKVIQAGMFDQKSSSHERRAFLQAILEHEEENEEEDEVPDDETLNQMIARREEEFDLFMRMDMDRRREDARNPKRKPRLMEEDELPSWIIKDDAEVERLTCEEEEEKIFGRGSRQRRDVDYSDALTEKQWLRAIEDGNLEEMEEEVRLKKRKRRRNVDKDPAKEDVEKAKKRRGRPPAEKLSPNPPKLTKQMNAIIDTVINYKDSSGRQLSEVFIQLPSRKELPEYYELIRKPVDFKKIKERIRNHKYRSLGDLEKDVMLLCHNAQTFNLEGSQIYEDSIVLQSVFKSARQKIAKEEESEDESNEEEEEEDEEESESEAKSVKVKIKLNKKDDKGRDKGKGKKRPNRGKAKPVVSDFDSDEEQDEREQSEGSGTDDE
Description: as §2

BAZ2B = target: T9, BAZ2B (Homo sapiens, UniProt Q9UIF8); assay: BROMOscan ligand-binding assay; details: KD, BROMOscan Gene Symbol BAZ2B
T9 sequence (Q9UIF8 2060-2164 limits assumed): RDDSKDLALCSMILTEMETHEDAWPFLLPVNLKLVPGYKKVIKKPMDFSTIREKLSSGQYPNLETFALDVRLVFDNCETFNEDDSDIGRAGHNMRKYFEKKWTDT
Description: as §2

ATAD2B = target: T10, ATAD2B (Homo sapiens, UniProt Q9ULI0); assay: BROMOscan ligand-binding assay; details: KD, BROMOscan Gene Symbol ATAD2B
T10 sequence (Q9ULI0 951-1066 limits assumed): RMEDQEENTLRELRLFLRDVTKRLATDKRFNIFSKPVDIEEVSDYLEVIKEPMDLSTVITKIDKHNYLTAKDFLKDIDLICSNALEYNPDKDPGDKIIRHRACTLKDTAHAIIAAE
Description: as §2

WDR9(2) = WDR9(2) (Homo sapiens, UniProt Q9NSI6); assay: BROMOscan ligand-binding assay
Sequence of WDR9(2) (Q9NSI6 1313-1418 limits assumed): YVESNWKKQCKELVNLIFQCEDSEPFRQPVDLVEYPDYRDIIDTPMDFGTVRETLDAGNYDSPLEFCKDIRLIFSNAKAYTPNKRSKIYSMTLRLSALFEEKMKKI
Description: as §2

GCN5L2 = target: T11, GCN5L2 (Homo sapiens, UniProt Q92830); assay: BROMOscan ligand-binding assay; details: KD, BROMOscan Gene Symbol GCN5L2
T11 sequence (Q92830 728-832 limits assumed): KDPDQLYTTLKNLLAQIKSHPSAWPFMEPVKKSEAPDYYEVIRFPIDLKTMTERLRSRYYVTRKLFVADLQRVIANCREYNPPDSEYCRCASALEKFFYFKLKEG
Description: as §2

[1] = KD (BROMOscan), sheet prints no unit (nM)

- Kd (BRPF1): 600 nM
- Kd (BAZ1B): 38 µM
- Kd (BRD8(2)): 40 µM
- Kd (TRIM33(PHD,BRD); [1]): > 30000 nM
- Kd (TRIM33(PHD,BRD); KD, BROMOscan Gene Symbol TRIM33(PHD,Bromo.)): > 50000 nM
- ΔTm (BRD9): only modest ΔTm
- ΔTm (CBP): relatively large ΔTm
- ΔTm (TAF1L(2)): only modest ΔTm
- Kd (BRD8(1)): 28 µM
- Kd (EP300): 1600 nM
- Kd (ATAD2A): 62 µM
- Kd (SMARCA2(iso.A)): 6.2 µM
- Kd (SMARCA2): 4.6 µM
- Kd (BAZ2B): 9.1 µM
- Kd (ATAD2B): 30 µM
- Kd (WDR9(2); [1]): > 30000 nM
- Kd (WDR9(2); KD, BROMOscan Gene Symbol WDR9(2)): > 50000 nM
- Kd (GCN5L2): 12 µM
Structure (SMILES): CCOC(=O)Nc1cc(-c2ccc(C)c(NS(C)(=O)=O)c2)nn2c(C)nnc12 [Bromosporine]
- changes in gene-expression levels (C2C12 myoblast cells): significant changes in gene-expression levels
